Laboratory results reported in patent US20020054880A1, “Anti-inflammatory, tolerogenic and immunoinhibiting properties of carbohydrate binding-peptides” (priority 1992, published 2002).
Like-named read-outs stand apart in the source and are kept apart here.

What was measured:
[1] = biological target: T1, asialoagalactofetuin (Bos taurus, UniProt P12763); settings: ACS2P1-biotin 10 μg/ml; glycoprotein 3 μg/ml; n=3
T1 sequence (P12763 19-359): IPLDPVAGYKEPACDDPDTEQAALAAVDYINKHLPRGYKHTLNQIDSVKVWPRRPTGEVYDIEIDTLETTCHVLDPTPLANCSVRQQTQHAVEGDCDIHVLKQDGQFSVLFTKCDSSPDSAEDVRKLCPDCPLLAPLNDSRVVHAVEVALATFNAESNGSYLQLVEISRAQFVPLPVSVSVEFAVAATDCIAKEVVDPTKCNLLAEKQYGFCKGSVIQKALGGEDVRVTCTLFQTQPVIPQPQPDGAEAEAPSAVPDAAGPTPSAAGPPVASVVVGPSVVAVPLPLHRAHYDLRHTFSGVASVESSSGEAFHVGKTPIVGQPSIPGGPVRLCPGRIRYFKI
Description: (§1) The reaction was terminated by removing the mixture from the IODO-GEN tube and the iodinated peptide was purified on a Sephadex G-25 column (1×15 cm equilibrated with PBS).

[2] = biological target: T2, asialofetuin (Bos taurus, UniProt P12763); settings: ACS2P1-biotin 10 μg/ml; glycoprotein 3 μg/ml; n=3
T2 sequence (P12763 19-359): T1 sequence (P12763 19-359)
Description: as §1

[3] = biological target: fetuin (Bos taurus, UniProt P12763)
Description: as §1

[4] = biological target: αNeuAc(2-3)βGal(1-3)βGlcNAc-BSA (1-4) αFuc (Bos taurus, UniProt P02769); settings: SLe^a(C19.9), conjugate 50 μg/mL, 1 hour
αNeuAc(2-3)βGal(1-3)βGlcNAc-BSA (1-4) αFuc, sequence (P02769 25-607): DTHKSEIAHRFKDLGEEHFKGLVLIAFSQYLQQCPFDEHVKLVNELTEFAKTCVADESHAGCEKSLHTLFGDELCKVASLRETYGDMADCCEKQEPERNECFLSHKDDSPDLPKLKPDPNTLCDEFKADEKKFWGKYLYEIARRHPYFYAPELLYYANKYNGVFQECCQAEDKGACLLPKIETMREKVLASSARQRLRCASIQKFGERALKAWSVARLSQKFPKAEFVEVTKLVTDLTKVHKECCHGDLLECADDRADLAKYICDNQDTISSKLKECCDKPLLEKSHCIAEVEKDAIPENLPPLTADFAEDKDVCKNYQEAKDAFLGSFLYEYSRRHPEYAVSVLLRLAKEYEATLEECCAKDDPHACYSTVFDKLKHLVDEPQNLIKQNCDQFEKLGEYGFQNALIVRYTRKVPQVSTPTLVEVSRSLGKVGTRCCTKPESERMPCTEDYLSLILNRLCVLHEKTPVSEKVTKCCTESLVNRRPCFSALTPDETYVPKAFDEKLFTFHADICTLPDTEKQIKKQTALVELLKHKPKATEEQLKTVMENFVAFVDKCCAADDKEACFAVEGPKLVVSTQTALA
Procedure: (§2) Binding assays were carried out essentially as described above using microtiter wells that were coated with 50 μl of BSA glycoconjugate (50 μg/ml) in 50 mM sodium phosphate buffer (pH 6.8) containing 5 mM MgCl2 nd 15 mM NaN3 for 16 hours at 4° C. The solution was removed by aspiration and replaced with 100 μl of 1% BSA in PBS containing 0.05% Tween 20 (PBST) and incubated at room temperature for an additional 2-3 hours. […] After incubating for 1 hour, the binding reaction was stopped by aspirating the solutions and the plate was washed with PBST (4×300 μl). Avidin-peroxidase (100 μl of a 1/3000 dilution of a 1 mg/ml solution in PBST) was added and incubated for an additional 1 hour. After washing the wells as described above, the substrate solution (1 mM ABTS in 5 mM citrate buffer, pH 4.2, containing 0.1% hydrogen peroxide, v/v) was added and the plates were incubated for 30 minutes. Binding assays for each BSA conjugate were done in triplicate and background binding was measured in wells coated with BSA only.

[5] = biological target: αNeuAc(2-3)βGal(1-3)βGlcNAc-BSA (Bos taurus, UniProt P02769); settings: SLe^c, conjugate 50 μg/mL, 1 hour
αNeuAc(2-3)βGal(1-3)βGlcNAc-BSA, sequence (P02769 25-607): as above
Procedure: as §2

[6] = biological target: αNeuAc(2-3)βGal(1-4)βGlcNAc-BSA (1-3) αFuc (Bos taurus, UniProt P02769); settings: SLe^x, conjugate 50 μg/mL, 1 hour
αNeuAc(2-3)βGal(1-4)βGlcNAc-BSA (1-3) αFuc, sequence (P02769 25-607): as above
Procedure: as §2

[7] = biological target: αNeuAc(2-3)βGal(1-4)βGlcNAc-BSA (Bos taurus, UniProt P02769); settings: conjugate 50 μg/mL, 1 hour; for % Binding Relative to Fetuin of ACS2P1-b (n = 3): 0.1 μg ACS2P1-biotin; for % Binding Relative to Fetuin of SPYGRC-b (n = 3): 0.5 μg SPYGRC-b
αNeuAc(2-3)βGal(1-4)βGlcNAc-BSA, sequence (P02769 25-607): as above
Procedure: as §2

[8] = biological target: PT immobilized in microtiter wells (Bordetella pertussis, UniProt P04978+P04979)
PT immobilized in microtiter wells, sequence (P04978 whole entry, looked up): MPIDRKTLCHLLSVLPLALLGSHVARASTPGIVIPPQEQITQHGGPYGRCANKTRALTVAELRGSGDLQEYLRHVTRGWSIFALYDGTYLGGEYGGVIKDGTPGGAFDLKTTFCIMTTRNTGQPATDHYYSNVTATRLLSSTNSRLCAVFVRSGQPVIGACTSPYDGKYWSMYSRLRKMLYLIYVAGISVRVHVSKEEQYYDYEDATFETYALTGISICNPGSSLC
PT immobilized in microtiter wells, sequence (P04979 whole entry, looked up): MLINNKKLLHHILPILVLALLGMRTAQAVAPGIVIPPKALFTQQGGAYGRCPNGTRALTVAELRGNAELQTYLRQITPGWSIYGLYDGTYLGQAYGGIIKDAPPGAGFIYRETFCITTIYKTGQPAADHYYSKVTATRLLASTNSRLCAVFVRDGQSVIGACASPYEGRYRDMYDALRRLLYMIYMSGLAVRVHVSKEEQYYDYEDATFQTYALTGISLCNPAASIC

Substance | binding to asialoagalactofetuin relative to fetuin [1] [%] | binding to asialofetuin relative to fetuin [2] [%] | direct binding of biotinylated peptide to fetuin, in words [3] | reduction of binding of the peptide to fetuin by extensive iodination (IODO-GEN) ([3]; iodinated vs underivatized peptide, 10 μg/ml, n=3) [%] | % Binding Relative to Fetuin of ACS2P1-b (n = 3) ([4]; 0.1 μg ACS2P1-biotin) [%] | % Binding Relative to Fetuin of ACS2P1-b (n = 3) ([5]; 0.1 μg ACS2P1-biotin) [%] | % Binding Relative to Fetuin of ACS2P1-b (n = 3) ([6]; 0.1 μg ACS2P1-biotin) [%] | % Binding Relative to Fetuin of ACS2P1-b (n = 3) ([7]; SLacNAc (table row r10)) [%] | % Binding Relative to Fetuin of ACS2P1-b (n = 3) ([7]; SLacNAc (table row r12)) [%] | direct binding of biotinylated peptide to PT immobilized in microtiter wells, in words [8] | % Binding Relative to Fetuin of SPYGRC-b (n = 3) ([4]; 0.5 μg SPYGRC-b) [%] | % Binding Relative to Fetuin of SPYGRC-b (n = 3) ([5]; 0.5 μg SPYGRC-b) [%] | % Binding Relative to Fetuin of SPYGRC-b (n = 3) ([6]; 0.5 μg SPYGRC-b) [%] | % Binding Relative to Fetuin of SPYGRC-b (n = 3) ([7]; SLacNAc (table row r10)) [%] | % Binding Relative to Fetuin of SPYGRC-b (n = 3) ([7]; SLacNAc (table row r12)) [%]
BIOTIN-PQEQITQHGSPYGRC-CO—NH2 [ACS2P1-b] | 93±18 | 45±9 | concentration-dependent binding | 58±3 | 84 ± 14 | 70 ± 4 | 84 ± 3 | 117 ± 12 | 94 ± 2 | concentration-dependent binding | – | – | – | – | –
BIOTIN-SPYGRC-CO—NH2 [SPYGRC-b] | – | – | – | – | – | – | – | – | – | – | 103 ± 8 | 97 ± 12 | 120 ± 4 | 120 ± 7 | 122 ± 5
